{
  "source": "patent US20220133761A1",
  "about": "“NEUTROPHIL APOPTOSIS INDUCED BY NANOPARTICLES FOR TREATING INFLAMMATORY DISEASES” (WASHINGTON STATE UNIVERSITY, priority 2020, published 2022)",
  "key": {"[1]": {"assay": "pH-triggered DOX release, UV-Vis of supernatants after 2 h incubation", "format": "physicochemical", "conditions": "pH 5.0 to 7.4, 2 h incubation in PBS", "procedure": "To confirm the pH-triggered drug release property, BSA NPs, DOX-ab-BSA NPs and DOX-hyd-BSA NPs were incubated in PBS at pH 7.4, 6.5 and 5.0 for 2 h, respectively. After centrifugation, the supernatants were collected to determine DOX concentrations using a UV-Vis spectrometer."}, "[2]": {"assay": "In vitro drug release profile (dialysis, 37 C)", "format": "physicochemical", "conditions": "pH 5.0-7.4, in 48 h", "procedure": "Release profiles of DOX from NPs were studied using dialysis method at 37° C.(33) Briefly, 3 mg of NPs was dispersed in 3 mL (Ve) PBS at different pH, and then was placed in a dialysis bag (MWCO 3500 Da). The dialysis bag was immersed in 47 mL PBS (pH 7.4, 6.5 or 5.0) in a beaker. The beaker was then placed in a 37° C. water bath and stirred at 110 rpm. The samples were drawn at desired time intervals and the drug concentration was measured using UV-Vis absorption. The experiments were carried out in triplicate at each pH value. The accumulative drug release percent (Er) was calculated based on equation (1).\nwhere, mdrug represents the amount of DOX in NPs, V0 was the whole volume of release media (V0=50 mL), Ci represents the concentration of DOX in the ith sample."}, "[3]": {"assay": "Serum stability of nanoparticles in PBS with 20% FBS", "format": "physicochemical", "conditions": "pH 7.4, incubation for 4 days", "procedure": "Particle size and polydispersity indexes (PDI) were measured using Malvern Zetasizer Nano90 (Westborough, Mass.). The samples were incubated in PBS at pH 7.4 for 2 h, and the measurements were conducted in a 1.0 mL quartz cuvette using a diode laser of 633 nm at 25° C. and a scattering angle was fixed at 90°. To evaluate their serum stability, nanoparticles were dispersed in 20% FBS PBS solution (pH 7.4) at a final concentration of 1 mg/mL. Nanoparticle sizes were measured at the predefined time points. Transmission electron microscopy (TEM) of nanoparticles was also performed using a FEI Technai G2 20 Twin TEM (Hillsboro, Oreg.)."}, "[4]": {"test_system": "differentiated HL-60 cells", "assay": "Apoptosis analysis, Annexin V-FITC / 7AAD staining (flow cytometry, CLSM)", "format": "cell-based, human", "conditions": "for apoptotic cells by flow cytometry: 24 h, DOX 3 μg/mL; for Annexin V-FITC / 7AAD staining by confocal microscopy: 24 h treatment", "procedure": "To investigate the apoptosis of neutrophils induced by DOX, Annexin V-FITC and 7AAD were used to double stain differentiated HL-60 cells. […] The cells were re-suspended in a binding buffer for staining of Annexin V-FITC and 7AAD (emission at 650 nm) according to the manufacturer's protocol (Invitrogen). Stained cells were analyzed using a flow cytometer and imaged by a Nikon A1R^+ confocal laser scanning microscope."}, "[5]": {"test_system": "differentiated HL-60 cells (neutrophil-like cells)", "assay": "In vitro cytotoxicity, CCK-8 assay", "format": "cell-based, human", "conditions": "24 h, different concentrations of DOX", "procedure": "Cytotoxic effects of BSA NPs on HL-60 cells were measured by CCK-8 assay. HL-60 cells were plated in 96-well plates (Costar, Corning, N.Y.) at 5,000-10,000 cells/well. After incubation for 24 h, the culture medium was removed and a complete medium with various concentrations of free DOX, BSA and DOX-conjugated BSA NPs was used to incubate cells for 24 h, respectively. 10 μL of the solution cell proliferation reagent (Promega, Madison, Wis.) per well was added. Then, the cell viability was measured by a Synergy Neo fluorescence plate reader (BioTek, Winooski, Vt.) at 490 nm."}, "[6]": {"test_system": "differentiated HL-60 cells", "assay": "TUNEL apoptosis assay", "format": "cell-based, human", "conditions": "CLSM images", "procedure": "To further confirm the apoptosis of differentiated HL-60 cells induced by DOX, TUNEL assay was also performed using Cell Meter™ TUNEL (green fluorescence) Apoptosis Assay Kit (AAT Bioquest, Inc.) according to the manufacturer's protocol and the images were taken by a Nikon A1R^+ confocal laser scanning microscope."}, "[7]": {"test_system": "heart, liver, spleen, lung and kidney", "assay": "Toxicity by histological analysis (H&E staining of major organs)", "conditions": "for tissue or cellular damage in H&E sections of heart, liver, spleen, lung, kidney: 0.2 mg/kg DOX", "procedure": "After different treatments (healthy, PBS, 4 mg/kg of free DOX, 0.2 mg/kg of free DOX, DOX-hyd-BSA NPs and DOX-ab-BSA NPs, equal to 0.2 mg/kg of DOX for NPs), mice were sacrificed by carbon dioxide asphyxiation. […] The samples were imaged by a microscope (ZEISS, Observer. Z1, USA)."}, "LPS-challenged mice": {"test_system": "LPS-challenged mice", "assay": "Survival study in sepsis mouse model (i.p. LPS 50 mg/kg)", "format": "in vivo", "conditions": "72 h, 0.2 mg/kg DOX i.v. 4 h after i.p. LPS 50 mg/kg", "procedure": "Adult CD-1 mice were i.p. injected with LPS (50 mg/kg) in the mouse sepsis model. 4 hours later, the LPS-challenged mice were grouped randomly (10 mice per group) and treated (i.v.) with PBS, free DOX (0.2 mg/kg), and prodrug DOX-hyd-BSA NPs (equal to 0.2 mg/kg of free DOX). The animals were monitored every 6 h in the first 12 h followed by monitoring mice every 12 h in 72 h."}},
  "data": [
    {"compound": "DOX-ab-BSA NPs", "values": [
      {"measurement": "DOX absorption in supernatant", "setting": "[1]", "value": "did not show the absorption of DOX in their supernatants"},
      {"measurement": "cumulative DOX release", "setting": "[2]", "value": "10-20%"},
      {"measurement": "serum stability (aggregation, diameter change)", "setting": "[3]", "value": "no aggregation (diameter change) was observed"},
      {"measurement": "apoptotic cells by flow cytometry", "setting": "[4]", "value": 20, "unit": "%"},
      {"measurement": "Annexin V-FITC / 7AAD staining by confocal microscopy", "setting": "[4]", "value": "did not induce cell apoptosis"},
      {"measurement": "cytotoxicity (cell viability)", "setting": "[5]", "value": "more efficient compared to that of DOX-ab-BSA NPs"},
      {"measurement": "co-staining of DOX and TUNEL", "setting": "[6]", "value": "a few cells possessed TUNEL signal"},
      {"measurement": "tissue or cellular damage in H&E sections of heart, liver, spleen, lung, kidney", "setting": "[7]", "value": "did not show any noticeable signs of tissue or cellular damage"}
    ]},
    {"compound": "COc1cccc2c1C(=O)c1c(O)c3c(c(O)c1C2=O)C[C@@](O)(C(=O)CO)C[C@@H]3O[C@H]1C[C@H](N)[C@H](O)[C@H](C)O1.Cl", "note": "[free DOX, doxorubicin hydrochloride]", "values": [
      {"measurement": "apoptotic cells by flow cytometry", "setting": "[4]", "value": 73, "unit": "%"},
      {"measurement": "Annexin V-FITC / 7AAD staining by confocal microscopy", "setting": "[4]", "value": "contained staining of Annexin-V-FITC, and less staining of 7AAD"},
      {"measurement": "cytotoxicity (cell viability)", "setting": "[5]", "value": "cytotoxicity was similar for both free DOX and DOX-hyd-BSA NPs"},
      {"measurement": "cells with co-staining of DOX and TUNEL", "setting": "[6]", "value": "~100", "unit": "%"},
      {"measurement": "tissue or cellular damage in H&E sections of heart, liver, spleen, lung, kidney", "setting": "[7]", "value": "did not show any noticeable signs of tissue or cellular damage"},
      {"measurement": "myocardial damage (vacuolization, myofibril loss)", "setting": "[7]; high dose 4.0 mg/kg", "value": "induced myocardial damage"},
      {"measurement": "mouse survival", "setting": "LPS-challenged mice", "value": "10-20%"}
    ]}
  ]
}
